Columns and labels:
AAD1 (v1) = target: T1, AAD1 (v1) (Sphingobium herbicidovorans, UniProt Q8KSC8); test: Colorimetric phenol detection assay of AAD1 (v1) activity (purified enzyme or E. coli extract); format: biochemical
T1 construct: made in house; host or cells: E. coli BL-21 Star (DE3), plasmid pDAB3203

[1] = system: AAD1 (v3)-transformed T1 Arabidopsis; test: T1 Arabidopsis response to postemergence herbicide (2,4-D, dichlorprop, haloxyfop, fluroxypyr), % visual injury 2 WAT: AAD1 (v3) transformants; format: in vivo, Arabidopsis thaliana; settings: AAD1 v3, 2 WAT
Method: Freshly harvested T1 seed (transformed with native [AAD1 (v2)] or plant optimized [AAD1 (v3)] gene) was allowed to dry for 7 days at room temperature. T1 seed was sown in 26.5×51-cm germination trays (T.O. Plastics Inc., Clearwater, Minn.), each receiving a 200 mg aliquots of stratified T1 seed (˜10,000 seed) that had previously been suspended in 40 ml of 0.1% agarose solution and stored at 4° C. for 2 days to complete dormancy requirements and ensure synchronous seed germination.
Sunshine Mix LP5 (Sun Gro Horticulture Inc., Bellevue, Wash.) was covered with fine vermiculite and subirrigated with Hoagland's solution until wet, then allowed to gravity drain. Each 40 ml aliquot of stratified seed was sown evenly onto the vermiculite with a pipette and covered with humidity domes (KORD Products, Bramalea, Ontario, Canada) for 4-5 days. Domes were removed 1 day prior to initial transformant selection using glufosinate postemergence spray (selecting for the co-transformed PAT gene).
Five to six days after planting (DAP) and again 10 DAP, T1 plants (cotyledon and 2-4-1f stage, respectively) were sprayed with a 0.2% solution of Liberty herbicide (200 g ai/L glufosinate, Bayer Crop Sciences, Kansas City, Mo.) at a spray volume of 10 ml/tray (703 L/ha) using a DeVilbiss compressed air spray tip to deliver an effective rate of 280 g ai/ha glufosinate per application. Survivors (plants actively growing) were identified 5-7 days after the final spraying and transplanted individually into 3-inch pots prepared with potting media (Metro Mix 360). Transplanted plants were covered with humidity domes for 3-4 days and placed in a 22° C. growth chamber as before. Domes were subsequently removed and plants moved to the greenhouse (22+5° C., 50+30% RH, 14 h light:10 dark, minimum 500 μE/m^2s^1 natural+supplemental light) at least 1 day prior to testing for the ability of AAD1 (v3) (plant optimized gene) or AAD1 (v2) (native microbial gene) to provide phenoxy auxin herbicide resistance.
(§1) Random individual T1 plants selected for glufosinate resistance above were confirmed for expression of the PAT protein using a PAT ELISA kit (Part no. 7000045, Strategic Diagnostics, Inc., Newark, Del.) to non-destructively confirm fidelity of selection process (manufacturer's protocol). Plants were then randomly assigned to various rates of phenoxy herbicides (dichlorprop or 2,4-D). […] Elevated rates were applied in subsequent trials (50, 200, 800, or 3200 g ae/ha).
(§2) All auxin herbicide applications were made using the DeVilbiss sprayer as described above to apply 703 L/ha spray volume (0.4 ml solution/3-inch pot) or applied by track sprayer in a 187 L/ha spray volume. […] Dichlorprop used was technical grade (Sigma, St. Louis, Mo.) dissolved in DMSO and diluted in water (<1% DMSO final concentration). As herbicide rates increased beyond 800 g ae/ha, the pH of the spray solution became exceedingly acidic, burning the leaves of young, tender Arabidopsis plants and complicating evaluation of the primary effects of the herbicides. It became standard practice to apply these high rates of phenoxy herbicides in 200 mM Tris buffer (pH 9.0) to a final pH of ˜7-8.
(§3) Although Arabidopsis, being a dicot, is not an optimal system for testing ACCase-inhibiting AOPP grass herbicides, AAD1 (v3)-transformed T1 plants were subjected to elevated rates (400-1600 g ae/ha) of RS-haloxyfop acid (internally synthesized) that do cause growth abnormalities and death of wildtype Arabidopsis using the DeVilbiss sprayer as described above. Injury ratings were taken 7 and 14 days after treatment. Likewise, T1 individuals were treated with the pyridyloxyacetate auxin herbicide, fluroxypyr.
Table 16. […] Response is presented in terms of % visual injury 2 WAT. […] Since each T1 is an independent transformation event, one can expect significant variation of individual T1 responses within a given rate. An arithmetic mean and standard deviation is presented for each treatment. […]

Wildtype Arabidopsis = test: T1 Arabidopsis spray test, % visual injury 2 WAT: wildtype control; format: in vivo, Arabidopsis thaliana; settings: for % Injury Ave / % Injury Range / individuals with 20-40% injury / individuals with <20% injury / individuals with >40% injury: Wildtype, 2 WAT
Description: as §1, §2, §3
Table 16. […] Response is presented in terms of % visual injury 2 WAT. […] Since each T1 is an independent transformation event, one can expect significant variation of individual T1 responses within a given rate. An arithmetic mean and standard deviation is presented for each treatment. The range in individual response is also indicated in the last column for each rate and transformation. PAT/Cry1F-transformed Arabidopsis served as an auxin-sensitive transformed control. Wildtype Arabidopsis is untransformed.
(§4) Table 17. T1 Arabidopsis response to a range of dichlroprop rates applied postemergence. Response is presented in terms of % visual injury 2 WAT. […] Since each T1 is an independent transformation event, one can expect significant variation of individual T1 responses within a given rate. An arithmetic mean and standard deviation is presented for each treatment. The range in individual response is also indicated in the last column for each rate and transformation. PAT/Cry1F-transformed Arabidopsis served as an auxin-sensitive transformed control. Wildtype Arabidopsis is untransformed.
as §4, with “18.” for “17.”, “haloxyfop” for “dichlroprop”, “postemergence at artificially high rates attempting to show tolerance of the dicot Arabidopsis to the graminicide.” for “postemergence.”

T1 sequence (Q8KSC8 whole entry): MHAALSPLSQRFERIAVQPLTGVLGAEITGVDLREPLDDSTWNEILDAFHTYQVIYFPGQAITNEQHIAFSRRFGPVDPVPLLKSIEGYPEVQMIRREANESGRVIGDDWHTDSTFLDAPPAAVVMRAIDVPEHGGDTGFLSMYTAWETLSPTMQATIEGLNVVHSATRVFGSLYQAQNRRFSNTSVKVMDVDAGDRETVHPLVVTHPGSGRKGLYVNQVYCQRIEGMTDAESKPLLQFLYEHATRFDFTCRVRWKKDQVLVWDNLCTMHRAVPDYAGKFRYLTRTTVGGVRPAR

CC(Oc1ccc(Cl)cc1Cl)C(=O)O (racemic) [(R,S)-dichlorprop, 2,4-dichlorophenoxypropionic acid]
activity of AAD1 (v1) E. coli extract on substrate (AAD1 (v1); 0.5 mM substrate, 4 μl extract, 15 min): cleaved | A510, AAD1 (AAD1 (v1); Table 3, substrate 1 mM, 1 μg purified AAD1 (v1) per 0.16 ml assay, 15 min): 0.566 | A510, AAD1 (10x) (AAD1 (v1); Table 3, substrate 1 mM, 10 μg purified AAD1 (v1) per 0.16 ml assay, 15 min): 2.594 | % Injury Ave ([1]; 12.5 g ae/ha): 5.0% | % Injury Range ([1]; 12.5 g ae/ha): 0-20% | individuals with 20-40% injury ([1]; 12.5 g ae/ha): 1 | individuals with <20% injury ([1]; 12.5 g ae/ha): 7 | individuals with >40% injury ([1]; 12.5 g ae/ha): 0 | % Injury Ave ([1]; 50 g ae/ha): 3.1% | % Injury Range ([1]; 50 g ae/ha): 0-25% | individuals with 20-40% injury ([1]; 50 g ae/ha): 1 | individuals with <20% injury ([1]; 50 g ae/ha): 7 | individuals with >40% injury ([1]; 50 g ae/ha): 0 | % Injury Ave ([1]; 200 g ae/ha): 40.0% | % Injury Range ([1]; 200 g ae/ha): 0-100% | individuals with 20-40% injury ([1]; 200 g ae/ha): 1 | individuals with <20% injury ([1]; 200 g ae/ha): 4 | individuals with >40% injury ([1]; 200 g ae/ha): 3 | % Injury Ave ([1]; 800 g ae/ha): 51.9% | % Injury Range ([1]; 800 g ae/ha): 20-100% | individuals with 20-40% injury ([1]; 800 g ae/ha): 5 | individuals with <20% injury ([1]; 800 g ae/ha): 0 | individuals with >40% injury ([1]; 800 g ae/ha): 3 | % Injury Ave (Wildtype Arabidopsis; 12.5 g ae/ha): 13.3% | % Injury Range (Wildtype Arabidopsis; 12.5 g ae/ha): 10-15% | individuals with 20-40% injury (Wildtype Arabidopsis; 12.5 g ae/ha): 0 | individuals with <20% injury (Wildtype Arabidopsis; 12.5 g ae/ha): 3 | individuals with >40% injury (Wildtype Arabidopsis; 12.5 g ae/ha): 0 | % Injury Ave (Wildtype Arabidopsis; 50 g ae/ha): 53.3% | % Injury Range (Wildtype Arabidopsis; 50 g ae/ha): 50-60% | individuals with 20-40% injury (Wildtype Arabidopsis; 50 g ae/ha): 0 | individuals with <20% injury (Wildtype Arabidopsis; 50 g ae/ha): 0 | individuals with >40% injury (Wildtype Arabidopsis; 50 g ae/ha): 3 | % Injury Ave (Wildtype Arabidopsis; 200 g ae/ha): 95.0% | % Injury Range (Wildtype Arabidopsis; 200 g ae/ha): 90-100% | individuals with 20-40% injury (Wildtype Arabidopsis; 200 g ae/ha): 0 | individuals with <20% injury (Wildtype Arabidopsis; 200 g ae/ha): 0 | individuals with >40% injury (Wildtype Arabidopsis; 200 g ae/ha): 3 | % Injury Ave (Wildtype Arabidopsis; 800 g ae/ha): 100.0% | % Injury Range (Wildtype Arabidopsis; 800 g ae/ha): 100% | individuals with 20-40% injury (Wildtype Arabidopsis; 800 g ae/ha): 0 | individuals with <20% injury (Wildtype Arabidopsis; 800 g ae/ha): 0 | individuals with >40% injury (Wildtype Arabidopsis; 800 g ae/ha): 3 | GR99 for Arabidopsis (Wildtype Arabidopsis; postemergence spray): ~200 g ae/ha

C[C@@H](Oc1ccc(Oc2cnc3cc(Cl)ccc3n2)cc1)C(=O)O [quizalofop]
activity relative to the dichlorprop rate (AAD1 (v1); purified AAD1 (v1), 1 mM substrate): 76%

From patent US10450549B2, “Aryloxyphenoxypropionate tolerance in turfrgass species and use of AAD1 as a selectable marker” (Dow AgroSciences, LLC, priority 2004, dated 2019)
